Key:
[1] = system: membrane ghosts; assay: Membrane binding stability (MBS) assay in membrane ghosts with 5% albumin; settings: 24 hours, Table III
Description: Determination of Membrane Binding Stability
For example, very stable binding to membranes might be required for applications such as delivery of therapeutic radionuclides to tumor sites, as loss of compound could lead to the radionuclide producing its toxic effect at non-tumor sites. On the other hand, more rapid loss of compound from biomembranes may be desirable for application involving controlled delivery rates of therapeutic agents. Accordingly, there is described hereinbelow an assay for determining MBS under conditions approximating those found in vivo.
In carrying out this assay, approximately physiological concentrations of serum albumin (5%) are used. […] To better approximate the effects of large fluid volumes to which labelled cells are exposed in vivo, the assay for MBS is carried out by suspending a decreasing number of labeled membrane ghosts in a fixed volume of albumin-containing saline. At 24 hours, the total amount of label present is determined by sampling the well mixed suspension; subsequently, the membrane ghosts are pelleted by centrifugation and the amount of label released into the supernatant is determined and expressed as a percent of total label. Percent retention is plotted against number of ghosts per ml. of suspension, and MBS is determined as the area under the curve between 5×10^7 ghosts/ml. and 4×10^8 ghosts/ml.

[2] = system: red blood cell ghosts (plasma membrane); assay: Membrane retention coefficient (MRC) in red blood cell ghosts; assay type: binding; settings: for Δ MRC: change in MRC to 24 hr
Protocol: Determination of Membrane Retention Coefficient
The membrane retention coefficient (MRC) provides information regarding how well a given compound is retained in the plasma membrane of a cell and is determined as described below.
Generation of red blood cell ghosts for use as a model membrane is achieved by centrifuging whole blood at 300×g for 15 minutes, removal of the plasma and resuspension of the cell pellet in 0.83% (w/v) ammonium chloride. The ghosts are pelleted from the ammonium chloride by centrifuging at 10,000×g for 10 minutes. This ammonium chloride washing procedure is repeated a minimum of five times to insure that complete release of hemoglobin from the cells has occured. The ghosts are labeled with the compound in question at a concentration allowing for detection of the labeled ghosts by instrumental analysis or fluorescent microscopic methods, and at a concentration similar to those that would be used to label cells for a specific application as described above. For the determinations hereinbelow stock solutions of the compounds in question were prepared in ethanol at a molar concentration of 2×10^-3, and working dilutions of the compounds were prepared in iso-osmotic sucrose (52 g/500 ml distilled water). After incubation of the ghosts at an approximate concentration of 1×10^9 ghosts/ml in the working dilutions of the compounds for 10 minutes, the samples were centrifuged at 10,000×g to pellet the ghosts and the staining solution was aspirated from the samples. The labeled ghosts were resuspended in 1 ml of phosphate buffered saline solution containing 10% fetal bovine serum (PBS-FBS). Triplicate 20 ul aliquots were removed from each sample for the determination of the amount of total compound present. The samples were centrifuged as described above and triplicate 20 ul aliquots were removed from the supernatant for quantitative determination of amount of unbound compound present.
After sampling, the supernatant was aspirated and the red cell ghost pellet was resuspended in 1.0 ml of the PBS-FBS, which was once again sampled as described above. This procedure was repeated at least six times, allowing for detection of rapidly released compounds and was monitored after times equal to or greater than 24 hours to allow for the detection of more slowly released compounds. For the determination of the amount of compound present in each sample, the 20 ul aliquots were extracted into 3.0 ml of n-butanol by shaking. The samples were centrifuged at 3000×g to remove membrane debris and the butanol fractions were assayed for compound concentration. Fluorescent compounds are assayed in this manner using peak excitation and emission wave lengths for the particular compounds being assayed to determine the fluorescence units for each sample.
The determination of the amount of compound present in each sample as described above allows for the calculation of the MRC for each washing or fixed time point. The value is obtained by the following formula: […]
wherein CT represents the amount of compound present (in units determined by the method used to assay the compound) in the total sample and CS represents the amount of compound present in the supernatant sample for that particular time point. The comparison of the MRC values defines criteria for identification of the compounds of this invention, these criteria being: 1) the MRC values determined for each washing steps should have a value of at least about 90 and 2) the percent difference between MRC values over at least a 24 hour time period should be less than about 10%. [drawing 14]
The data provided in Table I below are the results from one experiment and serve as an example of the MRC determination. […]

Row | MBS [1] [%] | SMILES | Membrane retention coefficient (MRC), 24 HR [2] | Δ MRC [2] [%] | Membrane retention coefficient (MRC), WASH 1 [2] | Membrane retention coefficient (MRC), WASH 2 [2] | Membrane retention coefficient (MRC), WASH 3 [2] | Membrane retention coefficient (MRC), WASH 4 [2] | Membrane retention coefficient (MRC), WASH 5 [2] | Membrane retention coefficient (MRC), WASH 6 [2]
1 | 94 ± 1.5 | CCCCCCCCCCCCCCCCCCN1C(=CC=Cc2sc3ccccc3[n+]2CCCCCCCCCCCCCCCCCC)Sc2ccccc21 [AA] |  |  |  |  |  |  |  | 
2 | 10 ± 2.1 | CCCCCCCCCCCCCCN1C(=CC=CC2=[N+](CCC)c3ccccc3C2(C)C)C(C)(C)c2ccccc21 [AC] |  |  |  |  |  |  |  | 
3 |  | CCCCCN1C(=CC=CC2=[N+](CCCCC)c3ccccc3C2(C)C)C(C)(C)c2ccccc21 [A] | 0.00 | 100.00 | 51.63 | 51.12 | 44.82 | 41.39 | 12.59 | 17.48
4 |  | CCCCCCCCCCN1C(=CC=CC2=[N+](CCCCCCCCCC)c3ccccc3C2(C)C)C(C)(C)c2ccccc21 [B] | 54.08 | 42.95 | 83.28 | 92.36 | 94.63 | 94.94 | 95.33 | 94.80
5 |  | CCCCCCCCCCCCCCN1C(=CC=CC2=[N+](CCCCCCCCCCCCCC)c3ccccc3C2(C)C)C(C)(C)c2ccccc21 [C] | 93.90 | 5.26 | 94.85 | 97.24 | 98.40 | 98.64 | 98.43 | 99.12
6 |  | CCCCCCCCCCCCCCCCCCCCN1C(=CC=Cc2oc3ccccc3[n+]2CCC)Oc2ccccc21 [Compound H] | 90.10 | 8.43 | 91.70 | 97.22 | 97.97 | 98.24 | 98.09 | 98.40
7 |  | CCCCCCCCCCCCCCN1C(=CC=Cc2oc3ccccc3[n+]2CCC)Oc2ccccc21 [D] | 18.84 | 75.82 | 50.40 | 61.20 | 64.45 | 65.85 | 70.62 | 77.92
8 |  | CCCCCCCCCCCCCCCCCCN1C(=CC=Cc2oc3ccccc3[n+]2CCC)Oc2ccccc21 [E] | 53.81 | 44.62 | 90.69 | 94.74 | 96.28 | 96.74 | 96.41 | 97.17
9 |  | CCC[n+]1c(C=CC=C2Oc3ccccc3N2CCC(C)CCCC(C)CCCC(C)CCCC(C)C)oc2ccccc21 (centres unmarked) [F] | 36.77 | 61.64 | 88.82 | 93.94 | 95.15 | 95.26 | 94.51 | 96.64
10 |  | CCCCCCCCCCCCCCCCCCCCCCN1C(=CC=Cc2oc3ccccc3[n+]2CCC)Oc2ccccc21 [G] | 96.90 | 1.46 | 94.42 | 96.96 | 98.03 | 97.93 | 97.92 | 98.34
11 |  | CCCCCCCCCCCCCCCCCCN1C(=CC=Cc2oc3ccccc3[n+]2CCCCCCCC)Oc2ccccc21 [I] | 97.65 | 2.08 | 94.69 | 98.24 | 98.32 | 98.78 | 98.96 | 99.73
12 |  | CCCCCCCCCCCCCCCCCCN1C(=CC=Cc2oc3ccccc3[n+]2CCCCC)Oc2ccccc21 [J] | 87.24 | 10.57 | 94.07 | 96.99 | 98.66 | 98.39 | 98.82 | 97.56
13 |  | CCCCCCCCCCCCCCCCCCCCCCN1C(=CC=Cc2oc3ccccc3[n+]2CCC)Oc2ccccc21 [K] | 97.90 | 1.56 | 97.35 | 98.47 | 98.16 | 98.99 | 99.01 | 99.46
14 |  | CCCCCCCCCCCCCCCCCCCCCC[n+]1c2cc(N(C)C)ccc2cc2ccc(N(C)C)cc21 [L] | 96.82 | 3.12 | 97.90 | 98.89 | 98.90 | 99.18 | 99.09 | 99.22
15 |  | CCCCCCCCCCCCCCCCCC[n+]1c2cc(N(C)C)ccc2cc2ccc(N(C)C)cc21 [M] | 42.88 | 55.79 | 91.01 | 95.12 | 95.82 | 96.42 | 96.27 | 97.01
16 |  | CCCCCCCCCCCCCCCCCCCCCCCCCC[n+]1c2cc(N(C)C)ccc2cc2ccc(N(C)C)cc21 [N] | 98.27 | 0.61 | 95.97 | 97.51 | 98.32 | 98.48 | 98.71 | 98.88
17 | 47 ± 3.1 | CCCCCCCCCCCCCCCCCCCCCCN1C(=CC=Cc2oc3ccccc3[n+]2CCC)Oc2ccccc21 [U] |  |  |  |  |  |  |  | 
18 | 64 ± 3.4 | CCCCCCCCCCCCCCCCCCCCCCN1C(=CC=Cc2sc3ccccc3[n+]2CCC)Sc2ccccc21 [V] |  |  |  |  |  |  |  | 
19 | 77 ± 1.1 | CCCCCCCCCCCCCCN1C(=CC=Cc2oc3ccccc3[n+]2CCCCCCCCCCCCCC)Oc2ccccc21 [W] |  |  |  |  |  |  |  | 
20 | 91 ± 1.3 | CCCCCCCCCCCCCCN1C(=CC=Cc2sc3ccccc3[n+]2CCCCCCCCCCCCCC)Sc2ccccc21 [X] |  |  |  |  |  |  |  | 
21 | 93 ± 1.0 | CCCCCCCCCCCCCCCCCCN1C(=CC=Cc2oc3ccccc3[n+]2CCCCCCCCCCCCCCCCCC)Oc2ccccc21 [Y] |  |  |  |  |  |  |  | 
